Results reported in patent US20050208163A1, “Compositions containing avocado leaf extract for lowering cholesterol levels” (priority 2002, published 2005).

System: Hep G2 hepatoma cells
Assay: Drymifolia leaf extract bioassay: cholesterol secretion by hepatoma cells (AMPLEX RED cholesterol kit)
Type: cell-based
Conditions: for activity at 25 µg/mL: HepG2, Conc. 25 μg/ml
Procedure: To measure cholesterol secretion by hepatoma cells following treatment by drymifolia leaf extract prepared in accordance with the present invention, a bioassay was performed. Samples for the bioassay were prepared by weighing out 100 mg of the spray dried powders of drymifolia leaf extracts. A 50 mg/ml total extract of the sample was then prepared by sequential addition of DMSO:ethanol:water in a ratio of 5:3:2. For example, for 100 mg of powder, 1 ml DMSO, 0.6 ml ethanol, and 0.4 ml water would be used. To prepare dilutions of sample for testing, the samples were diluted from the stock concentration of 50 mg/ml to test concentrations (i.e. 400, 200, 100 μg/ml) in tissue culture media. For the 400 μg/ml concentration, 8 μl of stock solution added to 992 μl tissue culture media would yield 400 μg/ml. From there, serial two fold dilutions would result in the remaining test concentration. Hep G2 hepatoma cells (ATCC, Manassas, Va.) were plated at 2×10^5/well in standard 24 well tissue culture plates. Following plating, the cells were incubated overnight. The next day, the media in the wells was aspirated and replaced with fresh media containing the diluted sample. Stock solutions of the samples were prepared as total extracts at 50 mg/ml. The samples were then diluted in tissue culture media just prior to adding to the cells. The cells were again incubated overnight with the samples. Then, the supernatant fluids were tested for the presence of cholesterol using the AMPLEX RED cholesterol kit (Molecular Probes, Eugene, Oreg.). The kit measures total cholesterol in the supernatants following enzymatic conversion of any cholesterol esters to free cholesterol using cholesterol esterase. The effect of the samples is calculated by dividing the mean relative fluorescence derived from the test samples by the mean relative fluorescence of untreated controls.
LIPITOR® and pure rutin samples were prepared in the same manner as the drymifolia leaf extract in the bioassay. The drymifolia leaf extract samples performed as well as or better than LIPITOR®. […] Pure rutin in the amount equivalent to the amount found in the lots 3193, 3194, 3811, and 3831 was tested. More specifically, the amount of rutin found in the lots was 3.44 mg/g, 4.36 mg/g, 4.42 mg/g and 4.13 mg/g, respectively. At the highest concentration of the drymifolia leaf extract samples tested (which was 400 ug/ml), there could be up to 25 ug/ml of rutin. Thus, the amount of pure rutin used in the bioassay was 3.125 to 25 ug/ml. […]

[1] = Homo sapiens, read-out: % ctrl (cholesterol release)

CC(C)c1c(C(=O)Nc2ccccc2)c(-c2ccccc2)c(-c2ccc(F)cc2)n1CC[C@@H](O)C[C@@H](O)CC(=O)O [LIPITOR ®, atorvastatin]
Mean (relative fluorescence, cholesterol release) (Conc. 25 μg/ml): 18308.5
Mean (relative fluorescence, cholesterol release) (Conc. 50 μg/ml): 18591
Mean (relative fluorescence, cholesterol release) (Conc. 100 μg/ml): 16871.5
Mean (relative fluorescence, cholesterol release) (Conc. 200 μg/ml): 16378
activity at 25 µg/mL [1]: 99.2%
activity at 50 µg/mL (Homo sapiens, HepG2, Conc. 50 μg/ml, read-out: % ctrl (cholesterol release)): 101%
activity at 100 µg/mL (Homo sapiens, HepG2, Conc. 100 μg/ml, read-out: % ctrl (cholesterol release)): 91.5%
activity at 200 µg/mL (Homo sapiens, HepG2, Conc. 200 μg/ml, read-out: % ctrl (cholesterol release)): 88.8%

C[C@@H]1O[C@@H](OC[C@H]2O[C@@H](Oc3c(-c4ccc(O)c(O)c4)oc4cc(O)cc(O)c4c3=O)[C@H](O)[C@@H](O)[C@@H]2O)[C@H](O)[C@H](O)[C@H]1O [Pure Rutin, rutin]
Mean (relative fluorescence, cholesterol release) (Conc. 3.125 μg/ml): 18609.5
Mean (relative fluorescence, cholesterol release) (Conc. 6.25 μg/ml): 19069
Mean (relative fluorescence, cholesterol release) (Conc. 12.5 μg/ml): 17835
Mean (relative fluorescence, cholesterol release) (Conc. 25 μg/ml): 16817.5
activity at 3.125 µg/mL (Homo sapiens, HepG2, Conc. 3.125 μg/ml, read-out: % ctrl (cholesterol release)): 101%
activity at 6.25 µg/mL (Homo sapiens, HepG2, Conc. 6.25 μg/ml, read-out: % ctrl (cholesterol release)): 103%
activity at 12.5 µg/mL (Homo sapiens, HepG2, Conc. 12.5 μg/ml, read-out: % ctrl (cholesterol release)): 96.7%
activity at 25 µg/mL [1]: 91.2%
